Values of other authors in patent US10034825B2, “Luminate eye gel” (Jan Marini Skin Research, priority 2015, dated 2018).

Details: after penetration through the skin to the living cells

Compound: CC(=O)Oc1c(C)c(C)c2c(c1C)CCC(C)(CCC[C@H](C)CCC[C@H](C)CCCC(C)C)O2 (stereo partly shown) [Tocopheryl acetate]
- fraction converted to free tocopherol: about 5%
